According to paper PMC11124822, “Discovery and Anticancer Screening of Novel Oxindole-Based Derivative Bearing Pyridyl Group as Potent and Selective Dual FLT3/CDK2 Kinase Inhibitor” (Pharmaceuticals, 2024):

Legend:
NCI/ADR-RES = assay: NCI-60 antiproliferative screen (SRB); format: cell-based, human; conditions: Homo sapiens; 10 µM single dose, 48 h; NCI/ADR-RES (Ovarian); read-out: Growth inhibition (%)
NCI-H23 = assay: NCI-60 antiproliferative screen (SRB); format: cell-based, human; conditions: Homo sapiens; 10 µM single dose, 48 h; NCI-H23 (NSCLC); read-out: Growth inhibition (%)
M14 = assay: NCI-60 antiproliferative screen (SRB); format: cell-based, human; conditions: Homo sapiens; 10 µM single dose, 48 h; M14 (Melanoma); read-out: Growth inhibition (%)
SK-OV-3 = assay: NCI-60 antiproliferative screen (SRB); format: cell-based, human; conditions: Homo sapiens; 10 µM single dose, 48 h; SK-OV-3 (Ovarian); read-out: Growth inhibition (%)
SW-620 = assay: NCI-60 antiproliferative screen (SRB); format: cell-based, human; conditions: Homo sapiens; 10 µM single dose, 48 h; SW-620 (Colon); read-out: Growth inhibition (%)
HOP-62 = assay: NCI-60 antiproliferative screen (SRB); format: cell-based, human; conditions: Homo sapiens; 10 µM single dose, 48 h; HOP-62 (NSCLC); read-out: Growth inhibition (%)
OVCAR-8 = assay: NCI-60 antiproliferative screen (SRB); format: cell-based, human; conditions: Homo sapiens; 10 µM single dose, 48 h; OVCAR-8 (Ovarian); read-out: Growth inhibition (%)
SF-539 = assay: NCI-60 antiproliferative screen (SRB); format: cell-based, human; conditions: Homo sapiens; 10 µM single dose, 48 h; SF-539 (CNS); read-out: Growth inhibition (%)
[1] = tested on: NCI-60 human cancer cell lines; assay: NCI-60 screen, full panel summary; format: cell-based; conditions: 10 µM single dose; for Mean Growth Percent: all NCI-60 cell lines; for inhibition at 10 µM: Homo sapiens, read-out: Range of Growth Inhibition on All Cells
Protocol: In a comprehensive test, compounds were assayed at a single dose concentration (10^−5 M) in the full panel of NCI-60 cancer cell lines.

HT29 = assay: NCI-60 antiproliferative screen (SRB); format: cell-based, human; conditions: Homo sapiens, HT-29; 10 µM single dose, 48 h; HT29 (Colon); read-out: Growth inhibition (%)
UACC-62 = assay: NCI-60 antiproliferative screen (SRB); format: cell-based, human; conditions: Homo sapiens; 10 µM single dose, 48 h; UACC-62 (Melanoma); read-out: Growth inhibition (%)
CAKI-1 = assay: NCI-60 antiproliferative screen (SRB); format: cell-based, human; conditions: Homo sapiens; 10 µM single dose, 48 h; CAKI-1 (Renal); read-out: Growth inhibition (%)
HOP-92 = assay: NCI-60 antiproliferative screen (SRB); format: cell-based, human; conditions: Homo sapiens; 10 µM single dose, 48 h; HOP-92 (NSCLC); read-out: Growth inhibition (%)
SR = assay: NCI-60 antiproliferative screen (SRB); conditions: Homo sapiens, 48 h, read-out: Growth inhibition (%)
SNB-19 = assay: NCI-60 antiproliferative screen (SRB); format: cell-based, human; conditions: Homo sapiens; 10 µM single dose, 48 h; SNB-19 (CNS); read-out: Growth inhibition (%)
A549/ATCC = assay: NCI-60 antiproliferative screen (SRB); format: cell-based, human; conditions: Homo sapiens; 10 µM single dose, 48 h; A549/ATCC (NSCLC); read-out: Growth inhibition (%)
LOX IMVI = assay: NCI-60 antiproliferative screen (SRB); format: cell-based, human; conditions: Homo sapiens; 10 µM single dose, 48 h; LOX IMVI (Melanoma); read-out: Growth inhibition (%)
NCI-H322M = assay: NCI-60 antiproliferative screen (SRB); format: cell-based, human; conditions: Homo sapiens; 10 µM single dose, 48 h; NCI-H322M (NSCLC); read-out: Growth inhibition (%)
BT-549 = assay: NCI-60 antiproliferative screen (SRB); format: cell-based, human; conditions: Homo sapiens; 10 µM single dose, 48 h; BT-549 (Breast); read-out: Growth inhibition (%)
SK-MEL-5 = assay: NCI-60 antiproliferative screen (SRB); format: cell-based, human; conditions: Homo sapiens; 10 µM single dose, 48 h; SK-MEL-5 (Melanoma); read-out: Growth inhibition (%)
DU-145 = assay: NCI-60 antiproliferative screen (SRB); format: cell-based, human; conditions: Homo sapiens; 10 µM single dose, 48 h; DU-145 (Prostate); read-out: Growth inhibition (%)
NCI-H460 = assay: NCI-60 antiproliferative screen (SRB); format: cell-based, human; conditions: Homo sapiens; 10 µM single dose, 48 h; NCI-H460 (NSCLC); read-out: Growth inhibition (%)
HCT-15 = assay: NCI-60 antiproliferative screen (SRB); format: cell-based, human; conditions: Homo sapiens; 10 µM single dose, 48 h; HCT-15 (Colon); read-out: Growth inhibition (%)
A498 = assay: NCI-60 antiproliferative screen (SRB); format: cell-based, human; conditions: Homo sapiens; 10 µM single dose, 48 h; A498 (Renal); read-out: Growth inhibition (%)
OVCAR-4 = assay: NCI-60 antiproliferative screen (SRB); conditions: Homo sapiens, OVCAR-4, 48 h, read-out: Growth inhibition (%)
MDA-MB-435 = assay: NCI-60 antiproliferative screen (SRB); format: cell-based, human; conditions: Homo sapiens; 10 µM single dose, 48 h; MDA-MB-435 (Melanoma); read-out: Growth inhibition (%)
UACC-257 = assay: NCI-60 antiproliferative screen (SRB); format: cell-based, human; conditions: Homo sapiens; 10 µM single dose, 48 h; UACC-257 (Melanoma); read-out: Growth inhibition (%)
ACHN = assay: NCI-60 antiproliferative screen (SRB); format: cell-based, human; conditions: Homo sapiens; 10 µM single dose, 48 h; ACHN (Renal); read-out: Growth inhibition (%)

Structure (SMILES): O=C1Nc2cc(Cl)ccc2C1=Cc1ccc(OCc2ccccc2)cc1 (mixture of isomers) [Compound 5d, (E/Z)-3-[4-(Benzyloxy)benzylidene]-6-chloroindolin-2-one]
- inhibition at 10 µM (NCI/ADR-RES): -4.24%
- inhibition at 10 µM (NCI-H23): 5.71%
- inhibition at 10 µM (M14): 3.83%
- inhibition at 10 µM (SK-OV-3): -3.01%
- inhibition at 10 µM (SW-620): 0.6%
- inhibition at 10 µM (HOP-62): 3.85%
- inhibition at 10 µM (OVCAR-8): -0.41%
- inhibition at 10 µM (SF-539): 5.48%
- Positive Cytostatic Effect (cell lines with percent growth from 0 to 50 / total number of cell lines) [1]: 0/59
- Positive Cytotoxic Effect (cell lines with percent growth of <0 / total number of cell lines) [1]: 0/59
- Sensitive/Total Cell Lines [1]: 0/59
- antiproliferative activity (in words) [1]: weak antiproliferative activity
- Mean Growth Percent [1]: 0.13
- inhibition at 10 µM [1]: -54 to 38.4%
- inhibition at 10 µM (HT29): -5.27%
- inhibition at 10 µM (UACC-62): 4.09%
- inhibition at 10 µM (CAKI-1): 10.7%
- inhibition at 10 µM (HOP-92): -8.67%
- melting point: 259 to 261 °C
- inhibition at 10 µM (SR): -4.93%
- inhibition at 10 µM (SNB-19): -3.09%
- inhibition at 10 µM (A549/ATCC): -4.59%
- inhibition at 10 µM (LOX IMVI): 7.32%
- inhibition at 10 µM (NCI-H322M): 0.49%
- inhibition at 10 µM (BT-549): -1.23%
- inhibition at 10 µM (SK-MEL-5): 2.83%
- inhibition at 10 µM (DU-145): -1.25%
- inhibition at 10 µM (NCI-H460): -4.48%
- inhibition at 10 µM (HCT-15): 5%
- inhibition at 10 µM (A498): 6.98%
- inhibition at 10 µM (OVCAR-4): 3.65%
- inhibition at 10 µM (MDA-MB-435): 0.59%
- inhibition at 10 µM (UACC-257): -16.1%
- inhibition at 10 µM (ACHN): 5.18%

Structure (SMILES): O=C1Nc2ccc(Cl)cc2C1=Cc1ccc(OCc2ccccc2)cc1 (mixture of isomers) [Compound 5c, (E/Z)-3-[4-(Benzyloxy)benzylidene]-5-chloroindolin-2-one]
- inhibition at 10 µM (NCI/ADR-RES): 1.88%
- inhibition at 10 µM (NCI-H23): -1.96%
- inhibition at 10 µM (M14): 7.34%
- inhibition at 10 µM (SK-OV-3): -1.7%
- inhibition at 10 µM (SW-620): 1.08%
- inhibition at 10 µM (HOP-62): 3.77%
- inhibition at 10 µM (OVCAR-8): -0.47%
- inhibition at 10 µM (SF-539): 4.12%
- Positive Cytostatic Effect (cell lines with percent growth from 0 to 50 / total number of cell lines) [1]: 0/59
- Positive Cytotoxic Effect (cell lines with percent growth of <0 / total number of cell lines) [1]: 0/59
- Sensitive/Total Cell Lines [1]: 0/59
- antiproliferative activity (in words) [1]: weak antiproliferative activity
- Mean Growth Percent [1]: 0.10
- inhibition at 10 µM [1]: -13 to 23.9%
- inhibition at 10 µM (HT29): -2.95%
- inhibition at 10 µM (UACC-62): 5.69%
- inhibition at 10 µM (CAKI-1): 13.4%
- inhibition at 10 µM (HOP-92): 9.75%
- melting point: 214 to 216 °C
- inhibition at 10 µM (SR): -0.06%
- inhibition at 10 µM (SNB-19): -1.05%
- inhibition at 10 µM (A549/ATCC): -0.99%
- inhibition at 10 µM (LOX IMVI): 0.14%
- inhibition at 10 µM (NCI-H322M): -0.07%
- inhibition at 10 µM (BT-549): -2.68%
- inhibition at 10 µM (SK-MEL-5): 1.9%
- inhibition at 10 µM (DU-145): -5.61%
- inhibition at 10 µM (NCI-H460): -3.66%
- inhibition at 10 µM (HCT-15): -4.25%
- inhibition at 10 µM (A498): -2.37%
- inhibition at 10 µM (OVCAR-4): -7.18%
- inhibition at 10 µM (MDA-MB-435): -3.79%
- inhibition at 10 µM (UACC-257): -6.58%
- inhibition at 10 µM (ACHN): -1.45%

Structure (SMILES): O=C1Nc2ccccc2C1=Cc1ccc(OCc2ccccc2)cc1 (mixture of isomers) [Compound 5a, (E/Z)-3-[4-(Benzyloxy)benzylidene] indolin-2-one]
- inhibition at 10 µM (NCI/ADR-RES): -0.55%
- inhibition at 10 µM (NCI-H23): -2.42%
- inhibition at 10 µM (M14): 5.67%
- inhibition at 10 µM (SK-OV-3): -5.78%
- inhibition at 10 µM (SW-620): -7.33%
- inhibition at 10 µM (HOP-62): -4.06%
- inhibition at 10 µM (OVCAR-8): 2.34%
- inhibition at 10 µM (SF-539): -3.4%
- Positive Cytostatic Effect (cell lines with percent growth from 0 to 50 / total number of cell lines) [1]: 0/59
- Positive Cytotoxic Effect (cell lines with percent growth of <0 / total number of cell lines) [1]: 0/59
- Sensitive/Total Cell Lines [1]: 0/59
- antiproliferative activity (in words) [1]: weak antiproliferative activity
- Mean Growth Percent [1]: −1.00
- inhibition at 10 µM [1]: -16.2 to 15.8%
- inhibition at 10 µM (HT29): -6.64%
- inhibition at 10 µM (UACC-62): 6.11%
- inhibition at 10 µM (CAKI-1): 2%
- inhibition at 10 µM (HOP-92): -7%
- melting point: 220 to 223 °C
- inhibition at 10 µM (SR): 14.6%
- inhibition at 10 µM (SNB-19): 2.17%
- inhibition at 10 µM (A549/ATCC): -3.26%
- inhibition at 10 µM (LOX IMVI): -7.76%
- inhibition at 10 µM (NCI-H322M): 0.44%
- inhibition at 10 µM (BT-549): -5.74%
- inhibition at 10 µM (SK-MEL-5): 1.96%
- inhibition at 10 µM (DU-145): -4.38%
- inhibition at 10 µM (NCI-H460): -8.64%
- inhibition at 10 µM (HCT-15): 0.04%
- inhibition at 10 µM (A498): 7.9%
- inhibition at 10 µM (OVCAR-4): -7.99%
- inhibition at 10 µM (MDA-MB-435): -2.33%
- inhibition at 10 µM (UACC-257): -9.45%
- inhibition at 10 µM (ACHN): -4.27%
